Measurements taken from patent US11440923B2, “Substituted macrocyclic indole derivatives” (Bayer Aktiengesellschaft, priority 2017, dated 2022).
Counter-ions that a name gives are not always drawn. Like-named read-outs stand apart in the source and are kept apart here.

How the values were obtained:
BCL-2 = BCL-2 (Homo sapiens (Human), UniProt P10415); test: Protein-protein interaction assay BCL-2/Bad BH3 peptide (BCL-2 assay, TR-FRET); format: binding; details: read-out: BCL-2 Assay IC50 (median)
Sequence of BCL-2 (P10415 1-211): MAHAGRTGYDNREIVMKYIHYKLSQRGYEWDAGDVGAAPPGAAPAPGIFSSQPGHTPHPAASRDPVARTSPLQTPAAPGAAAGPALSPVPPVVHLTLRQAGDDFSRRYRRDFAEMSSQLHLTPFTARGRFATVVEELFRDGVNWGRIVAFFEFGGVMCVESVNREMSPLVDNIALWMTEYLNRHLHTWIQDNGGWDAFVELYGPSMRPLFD
Procedure: Assay 3 Protein-Protein Interaction Assay: BCL-2/Bad BH3 Peptide (BCL-2 Assay)
The dose-dependent inhibition by the compounds described in this invention of the interaction between BCL-2 and the BH3 domain of Bad (both human) was determined using a steady state binding competition assay with time-resolved fluorescence energy transfer (TR-FRET) readout. For that purpose BCL-2 (amino acids 1-211, C-terminal fused to a hexahistidine (6×His) tag (SEQ ID 5) and a synthetic Bad BH3-derived peptide of sequence Biotin-PEG2-PEG2-[…]-Nle-[…]-amide (SEQ ID 4) served as protein receptor and tracer ligand respectively. The recombinant BCL-2 protein (expressed in E. coli) was purchased from BPS Bioscience (San Diego, Calif., USA). The Bad BH3-derived peptide can be obtained from e.g. Biosyntan (Berlin, Germany).
In the assay 11 different concentrations of each compound (0.1 nM, 0.33 nM, 1.1 nM, 3.8 nM, 13 nM, 44 nM, 0.15 μM, 0.51 μM, 1.7 μM, 5.9 μM and 20 μM) were typically measured as duplicates in the same microtiter plate. For that, 100-fold concentrated DMSO solutions were prepared by serial dilutions (1:3.4) of a 2 mM stock solution in a clear, 384-well microtiter plate (Greiner Bio-One, Frickenhausen, Germany). From there, 50 nl were transferred in a dark test plate (Greiner Bio-One, Frickenhausen, Germany). The assay was initiated by addition of 2 μL of a 2,5-fold concentrated His-BCL-2 solution (usually for a 1 nM end concentration in 5 μL reaction volume) in aqueous assay buffer [50 mM Tris/HCl pH 7, 100 mM sodium chloride (NaCl), 50 mM potassium fluoride (KF), 0.005% Tween-20, 2 mM DTT, 0.1% bovine gamma globulin (BGG)] to the compounds in the assay plate. This was followed by a 10-minute incubation step at 22° C. for pre-equilibration of the putative complex between His-BCL-2 and the compounds. After that, 3 μL of a 1.67-fold concentrated solution (in assay buffer) consisting of Bad BH3-derived peptide (1 nM end concentration) and TR-FRET detection reagents [1.67 nM anti-His-Eu cryptate and 1.67 nM streptavidin-XL665 (both from Cisbio Bioassays, Codolet, France)], were added.
The mixture was incubated in the dark for one hour at 22° C. and then overnight at 4° C. The formation of BCL-2/Bad complexes was determined by measuring the resonance energy transfer of the anti-His-Eu-cryptate antibody to the streptavidin-XL665 present in the reaction. For that purpose, the fluorescence emission at 620 nm and 665 nm after excitation at 330-350 nm was measured in a TR-FRET measuring instrument, for instance a Rubystar or a Pherastar (both from BMG Lab Technologies, Offenburg, Germany) or a Viewlux (Perkin-Elmer). The ratio of the emission at 665 nm and at 622 nm was used as indicator of the amount of BCL-2/Bad complexes present.
The resulting data (ratio) were normalized, taking 0% inhibition as the mean value of control measurements (usually 32 data points) where all reagents were included. In this case 50 nl DMSO were used instead of compounds. […] IC50 values were determined by regression analysis based on a 4 parameter equation (minimum, maximum, IC50, Hill; Y=Max+(Min−Max)/(1+(X/IC50)^Hill) using the Screener Software (Genedata).

SUDHL5 cells = test: Induction of cytotoxicity in SUDHL5 cells (Assay 6); format: cell-based; details: 5 h, CellTiter-Glo, read-out: Cytotox SUDHL5 IC50 (median)
Outline: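 Run alongside apoptosis measurements, this cytotoxicity readout used cells treated with compound for 5 h at 37 °C and quantified ATP-based luminescence with CellTiter-Glo.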

HMC-1-8 cells = test: Antiproliferation assay HMC-1-8 (Assay 7); format: cell-based
Outline: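 Growth inhibition is determined from ATP luminescence (CellTiter-Glo) following 72 h incubation with compound. Time-zero cells are measured the same way for baseline, and IC50s are referenced to DMSO controls.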

SUDHL10 cells = test: Induction of caspase-3/7 activity in SUDHL10 cells (Assay 4); format: cell-based
Outline: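 Caspase-3/7 activity measured in DLBCL lines after 3 h compound exposure at 37 °C, following overnight plating; Caspase-Glo 3/7 luminescence read after 1 h at 37 °C. Medium-only background subtracted, values normalized to mean of DMSO-treated cells.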

[1] = read-out: Antiproli HMC-1-8 IC50 median; 72 h, CellTiter-Glo
[2] = read-out: Caspase SUDHL10 EC50 (median); caspase-3/7 induction, 3 h
[3] = 72 h, CellTiter-Glo, read-out: Antiproli HMC-1-8 IC50 median
[4] = Homo sapiens, SU-DHL10, 3 h, caspase-3/7 induction, 3 h; read-out: Caspase SUDHL10 EC50 (median)

SMILES: CCc1c2c(nn1C)C(CC(C)(C)O)OCCCCn1c(C(=O)O)c(CCCOc3cccc4cc(F)ccc34)c3ccc(Cl)c-2c31 (single isomer, unassigned; enantiomer 21) [Example 54, (−)-4-chloro-3-ethyl-7-{3-[(6-fluoronaphthalen-1-yl)oxy]propyl}-15-(2-hydroxy-2-methylpropyl)-2-methyl-2,10,11,12,13,15-hexahydropyrazolo[4′,3′:9,10][1,6]oxazacycloundecino[8,7,6-hi]indole-8-carboxylic Acid—N-ethylethanamine Salt (Enantiomer 21]
- IC50 (BCL-2): > 20 µM
- IC50 (SUDHL5 cells): 9.4 µM
- IC50 (HMC-1-8 cells; [1]): 20.2 µM
- EC50 (SUDHL10 cells; [2]): 14 µM

SMILES: Cc1c2c(nn1C)C(CCO)OCCCCn1c(C(=O)O)c(CCCOc3cccc4ccccc34)c3ccc(Cl)c-2c31 (single isomer, unassigned; enantiomer 2) [Example 32, (−)-4-chloro-15-(2-hydroxyethyl)-2,3-dimethyl-7-{3-[(naphthalen-1-yl)oxy]propyl}-2,10,11,12,13,15-hexahydropyrazolo[4′,3′:9,10][1,6]oxazacycloundecino[8,7,6-hi]indole-8-carboxylic Acid (Enantiomer 2)]
- IC50 (BCL-2): > 20 µM
- IC50 (SUDHL5 cells): > 33 µM
- IC50 (HMC-1-8 cells; 72 h, CellTiter-Glo; read-out: Antiproli HMC-1-8 IC50 median): > 33 µM
- EC50 (SUDHL10 cells; caspase-3/7 induction, 3 h; read-out: Caspase SUDHL10 EC50 (median)): > 33 µM

SMILES: CCc1c2c(nn1C)C(CCOC)OCCCCn1c(C(=O)O)c(CCCOc3cccc4cc(F)ccc34)c3ccc(Cl)c-2c31 (single isomer, unassigned; enantiomer 2) [Example 43, (−)-4-chloro-3-ethyl-7-{3-[(6-fluoronaphthalen-1-yl)oxy]propyl}-15-(2-methoxyethyl)-2-methyl-2,10,11,12,13,15-hexahydropyrazolo[4′,3′:9,10][1,6]oxazacycloundecino[8,7,6-hi]indole-8-carboxylic Acid—N-ethylethanamine Salt (Enantiomer 2)]
- IC50 (BCL-2): 19.3 µM
- IC50 (SUDHL5 cells): 18 µM
- IC50 (HMC-1-8 cells; [1]): 26.5 µM
- EC50 (SUDHL10 cells; [2]): 24 µM

SMILES: CCc1c2c(nn1C)C(c1ccccc1)OCCCCn1c(C(=O)O)c(CCCOc3cccc4cc(F)ccc34)c3ccc(Cl)c-2c31 (racemic) [Example 59, (rac)-4-chloro-3-ethyl-7-{3-[(6-fluoronaphthalen-1-yl)oxy]propyl}-2-methyl-(15-rac)-phenyl-2,10,11,12,13,15-hexahydropyrazolo[4′,3′:9,10][1,6]oxazacycloundecino[8,7,6-hi]indole-8-carboxylic Acid]
- IC50 (BCL-2): 13.2 µM
- IC50 (SUDHL5 cells; Homo sapiens, SU-DHL-5, 5 h): 0.64 µM
- IC50 (HMC-1-8 cells; [3]): 3.41 µM
- EC50 (SUDHL10 cells; [4]): 0.57 µM

SMILES: CCC1OCCCCn2c(C(=O)O)c(CCCOc3cccc4ccccc34)c3ccc(Cl)c(c32)-c2c1nn(C)c2C (single isomer, unassigned; enantiomer 2) [Example 30, (−)-4-chloro-15-ethyl-2,3-dimethyl-7-{3-[(naphthalen-1-yl)oxy]propyl}-2,10,11,12,13,15-hexahydropyrazolo[4′,3′:9,10][1,6]oxazacycloundecino[8,7,6-hi]indole-8-carboxylic Acid—N-ethylethanamine Salt (Enantiomer 2)]
- IC50 (BCL-2): > 20 µM
- IC50 (SUDHL5 cells): 29 µM
- IC50 (HMC-1-8 cells; [1]): 22.6 µM
- EC50 (SUDHL10 cells; [2]): > 33 µM

SMILES: CCc1c2c(nn1C)C(CCN1CCN(C)CC1)OCCCCn1c(C(=O)O)c(CCCOc3cccc4cc(F)ccc34)c3ccc(Cl)c-2c31 (racemic) [Example 71, (rac)-4-chloro-3-ethyl-7-{3-[(6-fluoronaphthalen-1-yl)oxy]propyl}-2-methyl-(15-rac)-[2-(4-methylpiperazin-1-yl)ethyl]-2,10,11,12,13,15-hexahydropyrazolo[4′,3′:9,10][1,6]oxazacycloundecino[8,7,6-hi]indole-8-carboxylic Acid—N-ethylethanamine Salt (Mixture 2 Od Stereoisomers)]
- IC50 (BCL-2): > 20 µM
- IC50 (HMC-1-8 cells; [1]): 1.37 µM
- EC50 (SUDHL10 cells; [2]): 0.041 µM

SMILES: Cc1c2c(nn1C)C(C1CC1)OCCCCn1c(C(=O)O)c(CCCOc3cccc4ccccc34)c3ccc(Cl)c-2c31 (single isomer, unassigned; enantiomer 2) [Example 36, (−)-4-chloro-15-cyclopropyl-2,3-dimethyl-7-{3-[(naphthalen-1-yl)oxy]propyl}-2,10,11,12,13,15-hexahydropyrazolo[4′,3′:9,10][1,6]oxazacycloundecino[8,7,6-hi]indole-8-carboxylic Acid N-ethylethanamine Salt (Enantiomer 2)]
- IC50 (BCL-2): 14.6 µM
- IC50 (SUDHL5 cells): 21 µM
- IC50 (HMC-1-8 cells; [1]): 19 µM
- EC50 (SUDHL10 cells; [2]): 27 µM

SMILES: Cc1c2c(nn1C)C(CCN1CCOCC1)OCCCCn1c(C(=O)O)c(CCCOc3cccc4cc(F)ccc34)c3ccc(Cl)c-2c31 (racemic) [Example 16, (rac)-4-chloro-7-{3-[(6-fluoronaphthalen-1-yl)oxy]propyl}-2,3-dimethyl-15-[2-(morpholin-4-yl)ethyl]-2,10,11,12,13,15-hexahydropyrazolo[4′,3′:9,10][1,6]oxazacycloundecino[8,7,6-hi]indole-8-carboxylic Acid]
- IC50 (BCL-2): > 20 µM
- IC50 (SUDHL5 cells; Homo sapiens, SU-DHL-5, 5 h): 0.019 µM
- IC50 (HMC-1-8 cells; [3]): 0.322 µM
- EC50 (SUDHL10 cells; [4]): 0.019 µM

SMILES: CCc1c2c(nn1C)C(CCCN1CCOCC1)OCCCCn1c(C(=O)O)c(CCCOc3cccc4cc(F)ccc34)c3ccc(Cl)c-2c31 (racemic) [Example 65, (rac)-4-chloro-3-ethyl-7-{3-[(6-fluoronaphthalen-1-yl)oxy]propyl}-2-methyl-(15-rac)-[3-(morpholin-4-yl)propyl]-2,10,11,12,13,15-hexahydropyrazolo[4′,3′:9,10][1,6]oxazacycloundecino[8,7,6-hi]indole-8-carboxylic Acid]
- IC50 (BCL-2): > 20 µM
- IC50 (SUDHL5 cells; Homo sapiens, SU-DHL-5, 5 h): 0.078 µM
- IC50 (HMC-1-8 cells; [3]): 0.4 µM
- EC50 (SUDHL10 cells; [4]): 0.042 µM

SMILES: Cc1c2c(nn1C)C(C1CC1)OCCCCn1c(C(=O)O)c(CCCOc3cccc4ccccc34)c3ccc(Cl)c-2c31 (single isomer, unassigned; enantiomer 1) [Example 35, (+)-4-chloro-15-cyclopropyl-2,3-dimethyl-7-{3-[(naphthalen-1-yl)oxy]propyl}-2,10,11,12,13,15-hexahydropyrazolo[4′,3′:9,10][1,6]oxazacycloundecino[8,7,6-hi]indole-8-carboxylic Acid N-ethylethanamine Salt (Enantiomer 1)]
- IC50 (BCL-2): > 20 µM
- IC50 (SUDHL5 cells): 2 µM
- IC50 (HMC-1-8 cells; 72 h, read-out: Antiproli HMC-1-8 IC50 median, 72 h, CellTiter-Glo): 19.7 µM
- EC50 (SUDHL10 cells; [2]): 5.9 µM

SMILES: CCc1c2c(nn1C)C(Cc1ccccc1)OCCCCn1c(C(=O)O)c(CCCOc3cccc4cc(F)ccc34)c3ccc(Cl)c-2c31 (racemic) [Example 92, (rac)-(rac-15)-benzyl-4-chloro-3-ethyl-7-{3-[(6-fluoro-1-naphthyl)oxy]propyl}-2-methyl-2,10,11,12,13,15-hexahydropyrazolo[4′,3′:9,10][1,6]oxazacycloundecino[8,7,6-hi]indole-8-carboxylic Acid]
- IC50 (BCL-2): 12.2 µM
- IC50 (SUDHL5 cells; Homo sapiens, SU-DHL-5, 5 h): 1.2 µM
- IC50 (HMC-1-8 cells; [3]): 7.07 µM
- EC50 (SUDHL10 cells; [4]): 1.1 µM
